The target in assay [1] is T1, human OGA (Homo sapiens, UniProt O60502).
T1 construct: made in house
T1 sequence (O60502 1-916): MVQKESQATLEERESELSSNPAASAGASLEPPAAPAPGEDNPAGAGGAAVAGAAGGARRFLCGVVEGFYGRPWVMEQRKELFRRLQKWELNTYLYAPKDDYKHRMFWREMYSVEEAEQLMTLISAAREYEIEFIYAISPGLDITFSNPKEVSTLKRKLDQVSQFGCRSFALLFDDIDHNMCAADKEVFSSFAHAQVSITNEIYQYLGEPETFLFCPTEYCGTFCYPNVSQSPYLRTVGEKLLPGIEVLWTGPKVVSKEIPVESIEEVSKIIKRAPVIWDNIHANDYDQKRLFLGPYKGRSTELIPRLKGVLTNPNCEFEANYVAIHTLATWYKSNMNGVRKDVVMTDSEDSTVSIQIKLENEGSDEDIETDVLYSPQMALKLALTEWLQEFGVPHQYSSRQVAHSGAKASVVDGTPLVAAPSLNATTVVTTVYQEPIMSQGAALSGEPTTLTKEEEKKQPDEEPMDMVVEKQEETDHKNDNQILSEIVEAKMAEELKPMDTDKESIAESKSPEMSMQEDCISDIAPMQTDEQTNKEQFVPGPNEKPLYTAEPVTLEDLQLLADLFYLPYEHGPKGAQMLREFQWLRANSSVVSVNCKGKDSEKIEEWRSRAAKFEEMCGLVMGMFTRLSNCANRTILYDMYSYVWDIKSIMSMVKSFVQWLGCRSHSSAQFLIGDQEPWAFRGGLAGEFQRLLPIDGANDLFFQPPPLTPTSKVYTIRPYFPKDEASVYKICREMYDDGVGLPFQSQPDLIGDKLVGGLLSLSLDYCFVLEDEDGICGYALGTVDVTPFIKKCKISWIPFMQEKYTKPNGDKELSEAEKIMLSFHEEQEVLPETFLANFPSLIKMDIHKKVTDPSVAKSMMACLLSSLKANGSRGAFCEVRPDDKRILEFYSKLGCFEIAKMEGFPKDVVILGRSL
Kind of assay: Determination of IC50 values for inhibition of human OGA. It is filed as biochemical. How it is done:
Inhibitors identified from the screen described in Example 1 were evaluated for IC50 using a procedure adapted from Biochem. J. 2009, 420, 221-227. IC50 determination was carried out using a range of inhibitor concentrations from 300 μM to 0.003 μM or 100 μM to 0.001 μM. IC50 values were calculated using XLFit 4.

In assay [2] the test system is human β-hexosaminidase [human placenta] (HexA/B). Kind of assay: Determination of IC50 values for inhibition of human β-hexosaminidase. The class given is biochemical. The following applies: ratio. The procedure, abridged:
(§1)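 Inhibitor titrated from 300 μM to 0.003 μM or 100 μM to 0.001 μM. IC50 values come from curve fits, and selectivity is IC50(β-hexosaminidase)/IC50(human OGA).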

Assay [3] concerns the target T2, human β-hexosaminidase [human placenta] (HexA/B).
T2 construct: other: human β-hexosaminidase, human placenta; room temperature, thirty minutes
The description is as above. It is filed as biochemical. Particulars: human β-hexosaminidase, human placenta; room temperature, thirty minutes. In a few lines:
as §1

In assay [4] the target is T1, human OGA. Kind of assay: Determination of Ki values for inhibition of human OGA (4MU-GlcNAc substrate). The following applies: 2 nM human OGA, McIlvaine buffer pH 7.4, one hour. It is filed as biochemical. How it is done:
Enzymatic reactions were carried out in McIlvaine buffer (0.2M Na2PO4, 0.1M citric acid; pH 7.4) using 2 nM human OGA and 4MU-GlcNAc as substrate in the presence of inhibitor. For the Ki of AXX inhibitor concentrations were 0, 20, 40, 80, 160 and 320 nM [for the Ki determination of other compounds either the same concentrations or similar concentrations were used] and 4MU-GlcNAc concentrations were 50, 100, 200, 400, 800, 1600, and 3200 μM. Reactions were left for one hour. […] Modes of inhibition were determined by Lineweaver-Burke analysis and Ki values were determined using GraphPad 5 Prism non-linear regression analysis.

Assay [5] has as its system O-GlcNAc modified proteins in PC-12 cells or SH-SY5Y cells. Kind of assay: Western blot analyses of O-GlcNAc modified proteins in cells. The class given is cell-based. The following applies: for EC50: western blot, cells dosed 4 hours at 37° C., cell line not given. How it is done: PC-12 cells or SH-SY5Y cells were dosed with the test compound or vehicle control at 37° C. for 4 hours. Once the incubation was completed the media was removed and cells were lysed. Extracted protein was then used for Western blot analysis using standard molecular biology techniques. The resulting membrane was probed with antibodies specific for tau phosphorylation sites (pSer396, pSer422, pThr231, pSer262) or with antibodies specific for O-GlcNAcylation sites (RL-2 or CTD110.6). The primary antibodies were visualised using appropriate secondary conjugated with the fluorophores Alexa 532 or Alexa 488. Actin was visualised using a FITC conjugated primary antibody. Relative quantification was measured in relation to the actin signal using Image lab software (BRL). Marked increases in O-GlcNAcylated proteins within the cells were observed as compared to controls when cells were dosed with test compound.

For orientation: IC50 means the concentration that inhibits the measured activity by half. Lower therefore signals higher potency. For orientation: Ki means a dissociation constant, usually derived from enzyme kinetics or from competition with a known ligand. The low end stands for tighter binding, the high end for weaker binding. As a reminder, the EC50 is the concentration that produces a half-maximal response. Higher therefore signals weaker potency.

As for `CCCNC(=O)C[C@@H]1[C@H](O)[C@H](O)[C@@H](CO)N1CCCCc1ccccc1` [Compound A022, 2-((2R,3S,4R,5R)-3,4-dihydroxy-5-(hydroxymethyl)-1-(4-phenylbutyl)pyrrolidin-2-yl)-N-propylacetamide], the 50% inhibitory concentration (IC50) in assay [1] was 11 nM; in assay [3] it was more than 300000 nM. For the same compound, in assay [2], the “Selectivity: IC50(human β-hexosaminidase)/IC50(Human OGA)” value was more than 28571. The compound also showed a Ki in assay [4] of 72 nM. For the same compound, the EC50 in assay [5] turned out to be 1230 nM.
For `CCNC(=O)C[C@@H]1[C@@H](O)[C@H](O)[C@@H](CO)N1CCC(c1ccccc1)c1ccccc1` [Compound A068, 2-((2R,3R,4R,5R)-1-(3,3-diphenylpropyl)-3,4-dihydroxy-5-(hydroxymethyl)pyrrolidin-2-yl)-N-ethylacetamide], the half-inhibitory concentration (IC50) in assay [1] came out at 3.7 nM; in assay [3], 242000 nM. Besides, the “Selectivity: IC50(human β-hexosaminidase)/IC50(Human OGA)” value in assay [2] is given as more than 65405. This compound also returned a Ki in assay [4] of 64 nM.
With `CNC(=O)C[C@@H]1[C@H](O)[C@H](O)[C@@H](CO)N1CCCc1ccccc1` [Compound A016, 2-((2R,3S,4R,5R)-3,4-dihydroxy-5-(hydroxymethyl)-1-(3-phenylpropyl)pyrrolidin-2-yl)-N-methylacetamide], the IC50 is less than 3 nM in assay [1] and 54000 nM in assay [3]. Moreover, the “Selectivity: IC50(human β-hexosaminidase)/IC50(Human OGA)” value in assay [2] is given as more than 18000. This compound also came in with an inhibition constant Ki in assay [4] of 11 nM. The “cellular levels of O-GlcNAc modified proteins relative to vehicle (FIG. 2)” value in assay [5] (SH-SY5Y cells, 4 hours) is “increase”. The compound further displayed a concentration for a half-maximal effect (EC50) in assay [5] of 255 nM.
In the case of `CCN1[C@H](CC(=O)NC)[C@H](O)[C@H](O)[C@H]1CO` [Compound A019, 2-((2R,3S,4R,5R)-1-ethyl-3,4-dihydroxy-5-(hydroxymethyl)pyrrolidin-2-yl)-N-methylacetamide], the IC50 is 69 nM in assay [1] and more than 300000 nM in assay [3]. Further, the “Selectivity: IC50(human β-hexosaminidase)/IC50(Human OGA)” value in assay [2] is given as more than 4366. This compound displayed a half-maximal effective concentration (EC50) in assay [5] of 1900 nM.
As for `CNC(=O)C[C@H]1N[C@H](CO)[C@@H](O)[C@H]1O` [Compound A007, 2-((2R,3S,4R,5R)-3,4-dihydroxy-5-(hydroxymethyl)pyrrolidin-2-yl)-N-methylacetamide], the half-maximal inhibitory concentration (IC50) in assay [1] is 102 nM; in assay [3], more than 300000 nM. Also, in assay [2], the “Selectivity: IC50(human β-hexosaminidase)/IC50(Human OGA)” value is more than 3000. Besides, in assay [5], the EC50 stood at 4000 nM.
For the compound `CCNC(=O)C[C@H]1N[C@H](CO)[C@@H](O)[C@@H]1O` [Compound A050, 2-((2R,3R,4R,5R)-3,4-dihydroxy-5-(hydroxymethyl)pyrrolidin-2-yl)-N-ethylacetamide], the results for the IC50 in assay [1] and in assay [3] were 412 nM and more than 300000 nM, respectively. Moreover, the “Selectivity: IC50(human β-hexosaminidase)/IC50(Human OGA)” value in assay [2] is more than 728. For the same compound, the concentration for a half-maximal effect (EC50) in assay [5] came out at 2720 nM.
With `CNC(=O)C[C@@H]1[C@H](O)[C@H](O)[C@@H](CO)N1CCCCCNS(=O)(=O)c1ccc(-c2ccccc2)cc1` [Compound A066, 2-((2R,3S,4R,5R)-1-(5-([1,1′-biphenyl]-4-ylsulfonamido)pentyl)-3,4-dihydroxy-5-(hydroxymethyl)pyrrolidin-2-yl)-N-methylacetamide], the figures for the concentration for half-maximal inhibition (IC50) in assay [1] and in assay [3] were less than 3 nM and 10900 nM, respectively. Further, in assay [2], the “Selectivity: IC50(human β-hexosaminidase)/IC50(Human OGA)” value is listed as more than 3633. Further, the inhibition constant Ki in assay [4] worked out at 3 nM. The compound further showed an EC50 in assay [5] of 20 nM.
Take `CCCNC(=O)C[C@H]1N[C@H](CO)[C@@H](O)[C@@H]1O` [Compound A052, 2-((2R,3R,4R,5R)-3,4-dihydroxy-5-(hydroxymethyl)pyrrolidin-2-yl)-N-propylacetamide]: the values for the IC50 in assay [1] and in assay [3] were 113 nM and more than 300000 nM, respectively. For the same compound, in assay [2], the “Selectivity: IC50(human β-hexosaminidase)/IC50(Human OGA)” value is reported as more than 2654. In assay [5], the EC50 was 1070 nM.
As for `CCCCCCN1[C@H](CC(=O)NC)[C@H](O)[C@H](O)[C@H]1CO` [Compound A012, 2-((2R,3S,4R,5R)-1-hexyl-3,4-dihydroxy-5-(hydroxymethyl)pyrrolidin-2-yl)-N-methylacetamide], the IC50 in assay [1] is 49 nM; in assay [3], more than 300000 nM. Also, in assay [2], the “Selectivity: IC50(human β-hexosaminidase)/IC50(Human OGA)” value is on record as more than 6085. In addition, the Ki in assay [4] was determined as 70 nM. Further, the “cellular levels of O-GlcNAc modified proteins relative to vehicle (FIG. 2)” value in assay [5] (SH-SY5Y cells, 4 hours) is given as “increase”. The “cellular levels of O-GlcNAc modified proteins relative to vehicle (FIG. 1)” value in assay [5] (SH-SY5Y cells, 4 hours, varying concentrations) is “increase”. The EC50 in assay [5] was 656 nM.
Take `CNC(=O)C[C@@H]1[C@H](O)[C@H](O)[C@@H](CO)N1CCCCC(C)C` [Compound A021, 2-((2R,3S,4R,5R)-3,4-dihydroxy-5-(hydroxymethyl)-1-(5-methylhexyl)pyrrolidin-2-yl)-N-methylacetamide]: the 50% inhibitory concentration (IC50) in assay [1] was 8 nM; in assay [3], more than 300000 nM. In addition, the “Selectivity: IC50(human β-hexosaminidase)/IC50(Human OGA)” value in assay [2] is more than 37037. This compound gave a Ki in assay [4] of 41 nM. In assay [5] (SH-SY5Y cells, 4 hours), the “cellular levels of O-GlcNAc modified proteins relative to vehicle (FIG. 2)” value is on record as “increase”. Also, in assay [5], the concentration giving a half-maximal response (EC50) is 604 nM.
For `CCCCCCCCCN1[C@H](CC(=O)NCCC)[C@H](O)[C@H](O)[C@H]1CO` [Compound A008, 2-((2R,3S,4R,5R)-3,4-dihydroxy-5-(hydroxymethyl)-1-nonylpyrrolidin-2-yl)-N-propylacetamide], the figures for the IC50 in assay [1] and in assay [3] were 12 nM and more than 300000 nM, respectively. The “Selectivity: IC50(human β-hexosaminidase)/IC50(Human OGA)” value in assay [2] is more than 25000. For the same compound, in assay [4], the inhibition constant Ki worked out at 55 nM.
Turning to `CN(C)c1ccc(S(=O)(=O)NCCCCCCN2[C@H](CC(N)=O)[C@H](O)[C@H](O)[C@H]2CO)c2ccccc12` [Compound A015, 2-((2R,3S,4R,5R)-1-(6-(4-(dimethylamino)naphthalene-1-sulfonamido)hexyl)-3,4-dihydroxy-5-(hydroxymethyl)pyrrolidin-2-yl)acetamide], the IC50 in assay [1] is less than 3 nM; in assay [3], 11000 nM. The “Selectivity: IC50(human β-hexosaminidase)/IC50(Human OGA)” value in assay [2] is recorded as more than 3666. In assay [5], this compound returned an EC50 of 80 nM.
Consider `CCNC(=O)C[C@@H]1[C@@H](O)[C@H](O)[C@@H](CO)N1CCCc1ccc(OC)cc1` [Compound A060, 2-((2R,3R,4R,5R)-3,4-dihydroxy-5-(hydroxymethyl)-1-(3-(4-methoxyphenyl)propyl)pyrrolidin-2-yl)-N-ethylacetamide], for which the half-inhibitory concentration (IC50) in assay [1] is 11 nM; in assay [3], more than 300000 nM. For the same compound, the “Selectivity: IC50(human β-hexosaminidase)/IC50(Human OGA)” value in assay [2] was more than 27272. The compound further displayed a Ki in assay [4] of 167 nM. This compound had a 50% effective concentration (EC50) in assay [5] of 263 nM.

The values above are taken from patent US20140073801A1, “PYRROLIDINE DERIVATIVES AS SELECTIVE GLYCOSIDASE INHIBITORS AND USES THEREOF” (Summit Corporation Plc, priority 2011, published 2014).
